From US10179770B2, “Quinolines derivatives as novel anticancer agents” (GENOSCIENCE PHARMA, priority 2013, dated 2019)

Key:
[1] = tested on: OVCAR-3; assay: NCI-60 screen (SRB); type: cell-based, human; details: OVCAR-3 (Ovarian)
Description: (§1) The human tumor cell lines of the cancer screening panel are grown in RPMI 1640 medium containing 5% fetal bovine serum and 2 mM L-glutamine. For a typical screening experiment, cells are inoculated into 96 well microtiter plates in 100 μL at plating densities ranging from 5,000 to 40,000 cells/well depending on the doubling time of individual cell lines. After cell inoculation, the microtiter plates are incubated at 37° C., 5% CO2, 95% air and 100% relative humidity for 24 h prior to addition of experimental drugs.
(§2) After 24 h, two plates of each cell line are fixed in situ with TCA, to represent a measurement of the cell population for each cell line at the time of drug addition (Tz). Experimental drug is solubilized in dimethyl sulfoxide at 400-fold the desired final maximum test concentration and stored frozen prior to use. At the time of drug addition, an aliquot of frozen concentrate is thawed and diluted to twice the desired final maximum test concentration with complete medium containing 50 μg/ml gentamicin. Additional four, 10-fold or ½ log serial dilutions are made to provide a total of five drug concentrations plus control. Aliquots of 100 μl of these different drug dilutions are added to the appropriate microtiter wells already containing 100 μl of medium, resulting in the required final drug concentrations.
(§3) Following drug addition, the plates are incubated for an additional 48 h at 37° C., 5% CO2, 95% air, and 100% relative humidity. For adherent cells, the assay is terminated by the addition of cold TCA. Cells are fixed in situ by the gentle addition of 50 μl of cold 50% (w/v) TCA (final concentration, 10% TCA) and incubated for 60 minutes at 4° C. The supernatant is discarded, and the plates are washed five times with tap water and air dried. Sulforhodamine B (SRB) solution (100 μl) at 0.4% (w/v) in 1% acetic acid is added to each well, and plates are incubated for 10 minutes at room temperature. After staining, unbound dye is removed by washing five times with 1% acetic acid and the plates are air dried. Bound stain is subsequently solubilized with 10 mM trizma base, and the absorbance is read on an automated plate reader at a wavelength of 515 nm. For suspension cells, the methodology is the same except that the assay is terminated by fixing settled cells at the bottom of the wells by gently adding 50 μl of 80% TCA (final concentration, 16% TCA). Using the seven absorbance measurements [time zero, (Tz), control growth, (C), and test growth in the presence of drug at the five concentration levels (Ti)], the percentage growth is calculated at each of the drug concentrations levels.
(§4) Percentage growth inhibition is calculated as: [(Ti−Tz)/(C−Tz)]×100 for concentrations for which Ti>/=Tz (1) [(Ti−Tz)/Tz]×100 for concentrations for which Ti<Tz (2)
(§5) Growth inhibition of 50% (GI50) is calculated from [(Ti−Tz)/(C−Tz)]×100=50 (3)
(§6) which is the drug concentration resulting in a 50% reduction in the net protein increase (as measured by SRB staining) in control cells during the drug incubation.
(§7) The drug concentration resulting in total growth inhibition (TGI) is calculated from Ti=Tz (4)
(§8) The LC50 (concentration of drug resulting in a 50% reduction in the measured protein at the end of the drug treatment as compared to that at the beginning) indicating a net loss of cells following treatment is calculated from [(Ti−Tz)/Tz]×100=−50 (5)
(§9) Values are calculated for each of these three parameters if the level of activity is reached; however, if the effect is not reached or is exceeded, the value for that parameter is expressed as greater or less than the maximum or minimum concentration tested.

[2] = tested on: PC-3; assay: NCI-60 screen (SRB); type: cell-based, human; details: PC-3 (Prostate)
Description: as §1, §2, §3, §4, §5, §6, §7, §8, §9

[3] = tested on: UACC-62; assay: NCI-60 screen (SRB); type: cell-based, human; details: UACC-62 (Melanoma)
Description: as §1, §2, §3, §4, §5, §6, §7, §8, §9

[4] = tested on: Colo205; assay: NCI-60 screen (SRB); type: cell-based; details: COLO205 (Colon)
Method in brief: (§10)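 RPMI 1640/5% FBS/2 mM Gln; 24 h attach; Tz plates TCA-fixed at dosing; 5 conc. (10-fold or ½-log), 48 h, 37 °C, 5% CO2; SRB, A515; GI50/TGI/LC50 from Tz, C, Ti.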

[5] = tested on: SF-539; assay: NCI-60 screen (SRB); type: cell-based; details: SF-539 (CNS)
Method in brief: as §10

[6] = tested on: MOLM-14 cell line; assay: Growth inhibition assay of MOLM-14 (CellTiter-Glo, example 63); type: cell-based; details: Homo sapiens, 48 h, method of example 63
Description: MOLM-14 cell line was cultured in RPMI-1640 Medium supplemented with 10% v/v Fetal Bovine Serum (FBS), 1% Penicillin-Streptomycin and maintained at 37° C. with 5% CO2. 10,000 cells were plated onto 96-well plates immediately before the assay.
Each compound was added at different concentrations (combinations of six concentrations) to each well, and cell cultures were incubated for 48 h. Vehicle (H2O) was used as a control, and all compounds were tested in a constant percentage of vehicle. Cell outgrowth was measured using the CellTiter-Glo luminescent cell viability assay as described by the manufacturer (Promega, Ref G7571 Madison, Wis., USA) using a Centro (Berthold, France) plate reader.
In each experiment, each point represents the average of triplicates in cell culture.
The experimental data are analyzed using a computer program, Graphpad Prism (GraphPad Software, Inc. La Jolla, Calif.) and EC50 values were determined as the dose of compound required to reduce absorbance values to 50% of the signal obtained for vehicle treated cell cultures.

[7] = Homo sapiens, read-out: LC50 (the source's name)

SMILES: CC(C)(C)NC1CCN(c2cc(-c3ccc(Cl)cc3)nc3ccccc23)CC1.Cl.Cl [XII-4, 2-(4-chloro-phenyl)-4-(4-N-tert-butylamino-piperidin-1-yl)quinoline dihydrochloride]
- Growth percent at 10 μM [1]: − (cell growth % > 80)
- Growth percent at 10 μM [2]: +++ (cell growth 20 > % < 40)
- Growth percent at 10 μM [3]: ××××× (cell growth % < −80)
- Growth percent at 10 μM [4]: ×××× (cell growth −60 < % > −80)
- Growth percent at 10 μM [5]: ++ (cell growth 40 > % < 60)

SMILES: Cc1ccc(-c2cc(N3CCC(NC(C)(C)C)CC3)c3ccccc3n2)cc1.Cl.Cl [XIII-8, 2-(4-methyl-phenyl)-4-(4-N-tert-butylamino-piperidin-1-yl)quinoline dihydrochloride]
- EC50 [6]: 6 µM

SMILES: CCN(CC)C1CCN(C(C)c2cc(-c3ccccc3)nc3ccccc23)CC1.Cl.Cl (stereo not drawn) [XIX-3, 2-phenyl-4-{1-[4-(N,N-diethylamino)piperidin-1-yl]-eth-1-yl}quinoline dihydrochloride]
- GI50 ([1]; Homo sapiens): 14 µM
- CC50 [1, 7]: 55 µM
- TGI [1]: 28 µM
- Growth percent at 10 μM [1]: + (cell growth 60 > % < 80)
- Growth percent at 10 μM [2]: + (cell growth 60 > % < 80)
- Growth percent at 10 μM [3]: ×××× (cell growth −60 > % < −80)
- EC50 [6]: 22 µM
- TGI [4]: 4 µM
- Growth percent at 10 μM [4]: ××× (cell growth −40 > % < −60)
- GI50 ([4]; Homo sapiens, COLO 205): 2 µM
- CC50 ([4]; Homo sapiens, COLO 205, read-out: LC50 (the source's name)): 7 µM
- GI50 ([5]; Homo sapiens): 11 µM
- CC50 [5, 7]: 50 µM
- TGI [5]: 23 µM
- Growth percent at 10 μM [5]: ++ (cell growth 40 > % < 60)
